Read-outs that look alike come from different tables or passages of the source.
Tests used:
CBP/P300 = biological target: T1, CBP/P300 (Homo sapiens, UniProt Q92793); assay: CBP/P300 degradation, Nano-Glo HiBiT lytic assay; type: cell-based; conditions: HEK293T HiBiT-CBP cells, 6 h incubation; for Emax: HEK-293T
T1 construct: endogenous in cells; host or cells: HEK293T (CRISPR/Cas9 HiBiT knock-in at the CBP locus)
Source text: Assay media was DMEM no-phenol red medium and fetal bovine serum (FBS) were purchased from Gibco (Grand Island, N.Y., USA). Nano-Glo®, 1HiBiT Lydc Assay Systeni was purchased from Promega (Madison, Wis. USA). Stable HEK293T cell line with endogenously tagged HiBiT-CBP was generated in house by CRISPR/Cas9 gene editing introducing the HiBiT fusion tag at the N-terminus using homologous directed repair. Cell culture flasks and 384-well microplates were acquired from VWR (Radnor, Pa., USA).
CBP degradation was determined based on quantification of luminescent signal using Nano-Glo® HiBiT Lytic Assay kit. Test compounds were added to the 384-well plate from a top […] with 11 points, half log titration in duplicates, Cells were added into 384-well Corning 3570 plates, (Corning, Tewksbury, MA, USA) at a cell density of 10,000 cells per well in assay media. The plates were incubated at 37° C. with 5% CO2 for 6 hours. The cells treated in the absence of the test compound were the negative control and media was the positive control. After 6-hour incubation, Nano-Glo® HiBiT Lytic Assay reagents were added to the cells, Luminescence was acquired on EnVision™ Multilabel Reader (PerkinElmer, Santa Clara, Calif., USA).

CRBN-DDB1 = CRBN-DDB1 (Homo sapiens, UniProt Q96SW2); assay: CRBN FP binding assay (fluorescence polarization); conditions: 150 nM CRBN-DDB1, 5 nM Alexa-647 probe, read-out: FP CRBN_DDB1.3 ka
Experimental: The determination of the binding constant (KD) of test compounds to CRBN-DDB1 was carried out using an established sensitive and quantitative in vitro fluorescence polarization (FP) binding assay. Control compounds were run on the same plate. Compounds were dispensed from serially diluted DMSO stock supplied by Frontier Scientific Services Inc in low dead volume plates into black 384-well compatible FP plates using acoustic technology to 1% of total reaction volume. Compounds were arranged vertically in rows A through P. Concentrations series are horizontal: columns 1-11, and then duplicates in columns 12-22. Columns 23 and 24 are reserved for 0% (5 nM probe) and 100% controls (protein at high concentration with 5 nM probe), respectively. […] Matching control plates excluding CRBN-DDB1 were used to correct for background fluorescence. Plates were read on an Envision plate reader with appropriate FP filter sets.

cellular cereblon (CRBN) = cellular cereblon (CRBN) (Homo sapiens, UniProt Q96SW2); assay: NanoBRET CRBN assay, displacement of pomalidomide-NanoBRET tracer in 293T cells
ERK1/2 = ERK1/2 degradation, Total ERK HTRF assay in Colo205 cells; type: cell-based; conditions: 6 h, read-out: ERK1/2 6 h DC50 (Emax %)
Experimental: Colo205 CCL-222 cells were purchased from ATCC. RPMI 1640 no-phenol red medium and fetal bovine serum (FBS) were purchased from Gibco (Grand Island, NY, USA). Cell culture flasks and 384-well microplates were acquired from VWR (Radnor, PA, USA). Total ERK HTRF assay kits were purchased from Cisbio (64NRKPEH, Bedford, MA, USA).
Degradation of ERK1/2 was determined based on quantification of FRET signal using a Total ERK1/2 HTRF assay kit. Test compounds were added to the 384-well plate from a top concentration of 10 μM with 10 points, half-log titration in duplicates. COL0205 cells were added into 384-well plates at a cell density of 5,000 cells per well. The plates were kept at 37° C. with 5% CO2 for 6 hours. Cells treated in the absence of the test compound were the negative control. Positive control was set by wells containing all reagents but no cells. HTRF regents were added according to manufacturer's instructions with the additional step of lysate denaturation at 95° C. for 10 minutes and cooling to room temperature before antibody addition. Following addition of the antibodies the samples were incubated overnight. FRET signal was acquired on an EnVision™ Multilabel Reader (PerkinElmer, Santa Clara, CA, USA).

NSP3 UBL2_PLpro-HA-HiBiT = NSP3 UBL2_PLpro-HA-HiBiT (Severe acute respiratory syndrome coronavirus 2, UniProt P0DTC1); assay: NSP3 UBL2_PLpro-HA-HiBiT degradation assay (cellular) in 293T cells; type: cell-based, Severe acute respiratory syndrome Coronavirus 2 (Sars-CoV-2); conditions: 6.0 hours; for DC50: read-out: HiBiT-Degradation 293T.234 NSP3_PLpro 6.0 hours (DC50); for Emax: HEK-293T, Emax = residual protein remaining after treatment, read-out: HiBiT-Degradation 293T.234 NSP3_PLpro 6.0 hours (Emax %)
[1] = 1.5 h room temperature, numeric bounds
[2] = 1.5 h room temperature, class symbols

cellular cereblon (CRBN), sequence (Q96SW2 whole entry, species assumed): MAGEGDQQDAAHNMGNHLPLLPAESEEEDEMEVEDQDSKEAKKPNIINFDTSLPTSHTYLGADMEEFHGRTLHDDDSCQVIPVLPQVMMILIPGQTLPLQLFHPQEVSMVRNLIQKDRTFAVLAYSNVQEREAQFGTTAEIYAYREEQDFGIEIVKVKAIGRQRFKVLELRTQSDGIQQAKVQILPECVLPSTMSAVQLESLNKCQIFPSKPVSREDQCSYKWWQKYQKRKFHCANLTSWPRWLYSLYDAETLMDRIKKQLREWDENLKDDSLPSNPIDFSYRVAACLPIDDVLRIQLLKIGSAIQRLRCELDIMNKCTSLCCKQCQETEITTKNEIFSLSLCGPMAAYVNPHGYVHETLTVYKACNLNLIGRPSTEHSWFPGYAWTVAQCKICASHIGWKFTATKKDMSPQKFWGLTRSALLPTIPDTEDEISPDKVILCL
CRBN-DDB1, sequence (Q96SW2 whole entry): as the sequence (Q96SW2 whole entry, species assumed) above
CRBN-DDB1, sequence (Q16531 whole entry partner): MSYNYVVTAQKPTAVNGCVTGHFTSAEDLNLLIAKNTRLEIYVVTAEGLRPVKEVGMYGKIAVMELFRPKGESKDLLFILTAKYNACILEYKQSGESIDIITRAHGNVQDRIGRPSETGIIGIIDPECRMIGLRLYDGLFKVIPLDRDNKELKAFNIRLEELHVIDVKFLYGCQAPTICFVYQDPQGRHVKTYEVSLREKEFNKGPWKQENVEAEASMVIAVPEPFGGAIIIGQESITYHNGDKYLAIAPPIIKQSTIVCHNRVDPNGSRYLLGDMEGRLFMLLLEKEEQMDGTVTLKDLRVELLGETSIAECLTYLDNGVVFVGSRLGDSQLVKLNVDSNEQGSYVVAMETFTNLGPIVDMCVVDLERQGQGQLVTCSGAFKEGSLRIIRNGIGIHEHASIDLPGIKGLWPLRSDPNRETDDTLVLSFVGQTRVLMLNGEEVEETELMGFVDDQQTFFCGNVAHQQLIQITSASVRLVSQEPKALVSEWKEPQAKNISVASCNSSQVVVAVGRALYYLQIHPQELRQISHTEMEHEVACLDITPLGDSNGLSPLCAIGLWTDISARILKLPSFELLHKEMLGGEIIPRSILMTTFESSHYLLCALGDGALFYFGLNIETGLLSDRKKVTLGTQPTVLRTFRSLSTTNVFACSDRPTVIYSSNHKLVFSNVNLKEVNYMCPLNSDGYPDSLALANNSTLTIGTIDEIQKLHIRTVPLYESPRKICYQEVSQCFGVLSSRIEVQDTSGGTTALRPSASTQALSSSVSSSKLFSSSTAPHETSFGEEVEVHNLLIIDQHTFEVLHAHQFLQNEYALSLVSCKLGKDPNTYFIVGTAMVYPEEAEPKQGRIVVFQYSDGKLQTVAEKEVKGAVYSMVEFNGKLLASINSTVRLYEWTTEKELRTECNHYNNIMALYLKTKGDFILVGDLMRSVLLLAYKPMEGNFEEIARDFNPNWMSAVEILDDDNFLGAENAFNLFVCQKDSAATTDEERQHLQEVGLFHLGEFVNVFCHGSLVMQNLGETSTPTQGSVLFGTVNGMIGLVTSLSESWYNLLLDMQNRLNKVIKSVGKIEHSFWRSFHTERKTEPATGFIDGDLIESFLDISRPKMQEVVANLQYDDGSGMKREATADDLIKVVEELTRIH
T1 sequence (Q92793 whole entry): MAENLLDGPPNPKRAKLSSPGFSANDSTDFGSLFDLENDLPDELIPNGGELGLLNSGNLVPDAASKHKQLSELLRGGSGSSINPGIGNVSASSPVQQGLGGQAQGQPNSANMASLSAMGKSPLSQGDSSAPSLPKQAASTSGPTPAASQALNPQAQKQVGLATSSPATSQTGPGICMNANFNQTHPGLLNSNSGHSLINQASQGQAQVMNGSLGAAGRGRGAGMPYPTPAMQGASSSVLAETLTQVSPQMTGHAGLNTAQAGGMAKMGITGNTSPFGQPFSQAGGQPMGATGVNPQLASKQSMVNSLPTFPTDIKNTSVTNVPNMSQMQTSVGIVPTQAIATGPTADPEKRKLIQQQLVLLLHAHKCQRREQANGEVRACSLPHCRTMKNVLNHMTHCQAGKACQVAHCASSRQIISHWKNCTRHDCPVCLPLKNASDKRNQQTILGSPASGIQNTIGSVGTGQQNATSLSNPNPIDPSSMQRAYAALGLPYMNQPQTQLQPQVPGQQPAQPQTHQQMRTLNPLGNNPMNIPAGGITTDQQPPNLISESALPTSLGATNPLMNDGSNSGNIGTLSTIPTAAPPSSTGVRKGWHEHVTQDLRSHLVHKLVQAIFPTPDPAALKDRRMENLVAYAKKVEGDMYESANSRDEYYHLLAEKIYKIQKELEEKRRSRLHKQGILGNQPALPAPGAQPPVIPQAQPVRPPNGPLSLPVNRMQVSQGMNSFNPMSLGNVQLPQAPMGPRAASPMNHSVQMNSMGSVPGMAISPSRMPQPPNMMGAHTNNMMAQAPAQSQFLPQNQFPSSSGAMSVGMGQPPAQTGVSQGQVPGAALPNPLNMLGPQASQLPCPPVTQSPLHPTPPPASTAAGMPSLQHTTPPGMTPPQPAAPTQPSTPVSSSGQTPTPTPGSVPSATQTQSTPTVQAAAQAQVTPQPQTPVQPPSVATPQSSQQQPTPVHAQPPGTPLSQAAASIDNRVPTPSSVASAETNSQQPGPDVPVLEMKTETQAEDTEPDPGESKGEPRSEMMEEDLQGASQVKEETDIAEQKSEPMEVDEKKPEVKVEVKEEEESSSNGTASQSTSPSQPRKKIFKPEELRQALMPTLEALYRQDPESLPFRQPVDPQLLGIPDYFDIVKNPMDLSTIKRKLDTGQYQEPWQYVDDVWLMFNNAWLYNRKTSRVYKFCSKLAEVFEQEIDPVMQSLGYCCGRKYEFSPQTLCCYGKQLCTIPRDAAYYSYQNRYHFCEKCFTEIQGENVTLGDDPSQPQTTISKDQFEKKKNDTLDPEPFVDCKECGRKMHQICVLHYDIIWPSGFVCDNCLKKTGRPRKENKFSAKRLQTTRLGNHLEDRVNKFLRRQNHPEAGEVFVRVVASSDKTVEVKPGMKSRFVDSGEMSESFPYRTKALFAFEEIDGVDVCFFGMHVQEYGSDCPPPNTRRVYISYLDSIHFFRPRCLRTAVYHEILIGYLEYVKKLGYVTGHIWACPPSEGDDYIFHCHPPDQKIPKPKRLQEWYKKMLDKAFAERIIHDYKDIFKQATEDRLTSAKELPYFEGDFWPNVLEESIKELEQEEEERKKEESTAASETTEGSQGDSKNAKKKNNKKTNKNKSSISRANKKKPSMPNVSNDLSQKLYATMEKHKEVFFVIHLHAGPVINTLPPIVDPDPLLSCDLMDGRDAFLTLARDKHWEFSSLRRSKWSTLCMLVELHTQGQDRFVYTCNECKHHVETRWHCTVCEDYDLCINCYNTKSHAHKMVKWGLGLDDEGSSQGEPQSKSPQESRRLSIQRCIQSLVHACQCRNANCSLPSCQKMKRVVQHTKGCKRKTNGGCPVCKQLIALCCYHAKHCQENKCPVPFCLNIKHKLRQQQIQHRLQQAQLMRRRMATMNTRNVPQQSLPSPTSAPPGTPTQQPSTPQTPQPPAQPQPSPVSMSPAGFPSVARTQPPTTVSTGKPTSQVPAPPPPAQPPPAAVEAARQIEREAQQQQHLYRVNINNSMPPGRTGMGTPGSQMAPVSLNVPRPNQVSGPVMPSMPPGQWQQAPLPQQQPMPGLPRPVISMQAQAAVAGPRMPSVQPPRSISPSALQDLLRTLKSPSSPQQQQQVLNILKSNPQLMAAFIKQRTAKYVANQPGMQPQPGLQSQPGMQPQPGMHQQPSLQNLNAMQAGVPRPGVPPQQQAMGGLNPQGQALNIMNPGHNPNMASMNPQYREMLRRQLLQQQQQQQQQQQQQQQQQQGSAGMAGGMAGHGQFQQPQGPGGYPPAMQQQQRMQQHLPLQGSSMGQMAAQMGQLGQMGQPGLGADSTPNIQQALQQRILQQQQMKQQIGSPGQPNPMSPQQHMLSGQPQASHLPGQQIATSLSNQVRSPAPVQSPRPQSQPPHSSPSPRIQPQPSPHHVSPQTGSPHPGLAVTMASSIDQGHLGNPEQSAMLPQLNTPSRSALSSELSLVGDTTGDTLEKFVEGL

SMILES	IC50 (cellular cereblon (CRBN)) [nM]	DC50 (NSP3 UBL2_PLpro-HA-HiBiT) [nM]	Emax (NSP3 UBL2_PLpro-HA-HiBiT) [%]	other results
CNC(=O)N1CCc2c(c(N3CCCc4cc(-c5cnn(C)c5)c(C(F)F)cc43)nn2C2CCN(C(=O)CCCCCCCCN3CCC(c4ccc5c6c(cccc46)C(=O)N5C4CCC(=O)NC4=O)CC3)CC2)C1 (stereo not drawn)				DC50 (CBP/P300): < 10 nM; Emax (CBP/P300): < 30%; Kd (CRBN-DDB1; [1]): < 10 nM
CNC(=O)N1CCc2c(c(N3CCCc4cc(-c5cnn(C)c5)c(C(F)F)cc43)nn2C2CCN(C(=O)CCCCCCCCN3CCC(Nc4ccc5c6c(cccc46)C(=O)N5C4CCC(=O)NC4=O)CC3)CC2)C1 (stereo not drawn)				DC50 (CBP/P300): < 10 nM; Emax (CBP/P300): < 30%; Kd (CRBN-DDB1; [1]): < 10 nM
COC(=O)c1ccc2c3c(cccc13)C(=O)N2C1CCC(=O)NC1=O (stereo not drawn)	< 100			Kd (CRBN-DDB1; [2]): 100 to 1000 nM
Nc1ccc2c3c(cccc13)C(=O)N2C1CCC(=O)NC1=O (stereo not drawn)	< 100			Kd (CRBN-DDB1; [2]): 100 to 1000 nM
O=C1CCC(N2C(=O)c3cccc4c(C5CCNCC5)ccc2c34)C(=O)N1 (stereo not drawn)	< 100			
N#Cc1ccc2c3c(cccc13)C(=O)N2C1CCC(=O)NC1=O (stereo not drawn)	< 100			
O=C1CCC(N2C(=O)c3cccc4c(C5CCN(CC(=O)N6CC(c7nc8ccc(-c9n[nH]c%10cc%11c(cc9%10)CN(Cc9ccccc9)C(=O)N%11)cc8o7)C6)CC5)ccc2c34)C(=O)N1 (stereo not drawn)				Kd (CRBN-DDB1; class symbols): 1000 to 10000 nM; DC50 (ERK1/2): 100 to 1000 nM
O=C1CCC(N2C(=O)C3CCCc4c(C5CCN(CCCC(=O)N6CC(c7nc8ccc(-c9n[nH]c%10cc%11c(cc9%10)CN(Cc9ccccc9)C(=O)N%11)cc8o7)C6)CC5)ccc2c43)C(=O)N1 (stereo not drawn)				Kd (CRBN-DDB1; class symbols): 1000 to 10000 nM; DC50 (ERK1/2): 100 to 1000 nM
CC(c1ccc(C#CC2CCN(C(=O)CN3CCC(c4ccc5c6c(cccc46)C(=O)N5C4CCC(=O)NC4=O)CC3)CC2)c2ccccc12)N1CCC(C(=O)NCc2cccc(F)c2)CC1 (stereo not drawn) [Compound 102, 1-[1-[4-[2-[1-[2-[4-[1-(2,6-dioxo-3-piperidyl)-2-oxo-benzo[cd]indol-6-yl]-1-piperidyl]acetyl]-4-piperidyl]ethynyl]-1-naphthyl]ethyl]-N-[(3-fluorophenyl)methyl]piperidine-4-carboxamide]		> 10000	61 to 95	
CC(c1ccc(C#CC2CCN(C(=O)CN3CCC(c4ccc5c6c(cccc46)N(C4CCC(=O)NC4=O)C5=O)CC3)CC2)c2ccccc12)N1CCC(C(=O)NCc2cccc(F)c2)CC1 (stereo not drawn) [Compound 103, 1-[1-[4-[2-[1-[2-[4-[1-(2,6-dioxo-3-piperidyl)-2-oxo-benzo[cd]indol-5-yl]-1-piperidyl]acetyl]-4-piperidyl]ethynyl]-1-naphthyl]ethyl]-N-[(3-fluorophenyl)methyl]piperidine-4-carboxamide]		> 10000	61 to 95	
CC(c1cccc2c(C#CC3CCN(C(=O)CN4CCC(c5ccc6c7c(cccc57)C(=O)N6C5CCC(=O)NC5=O)CC4)CC3)cccc12)N1CCC(C(=O)NCc2cccc(F)c2)CC1 (stereo not drawn) [Compound 104, 1-[1-[5-[2-[1-[2-[4-[1-(2,6-dioxo-3-piperidyl)-2-oxo-benzo[cd]indol-6-yl]-1-piperidyl]acetyl]-4-piperidyl]ethynyl]-1-naphthyl]ethyl]-N-[(3-fluorophenyl)methyl]piperidine-4-carboxamide]		> 10000	61 to 95	
CC(c1cccc2c(C#CC3CCN(C(=O)CN4CCC(c5ccc6c7c(cccc57)N(C5CCC(=O)NC5=O)C6=O)CC4)CC3)cccc12)N1CCC(C(=O)NCc2cccc(F)c2)CC1 (stereo not drawn) [Compound 105, 1-[1-[5-[2-[1-[2-[4-[1-(2,6-dioxo-3-piperidyl)-2-oxo-benzo[cd]indol-5-yl]-1-piperidyl]acetyl]-4-piperidyl]ethynyl]-1-naphthyl]ethyl]-N-[(3-fluorophenyl)methyl]piperidine-4-carboxamide]		> 10000	61 to 95	

Reference: patent US20230372496A1, “TRICYCLIC HETEROBIFUNCTIONAL COMPOUNDS FOR DEGRADATION OF TARGETED PROTEINS” (C4 Therapeutics, Inc., priority 2020, published 2023)
